Measured values taken from US20220168427A1 (Ranok Therapeutics (Hangzhou) Co. Ltd., priority 2019, published 2022).
Where a name gives a salt, the structure may show the parent alone.

Tests used:
BRD4 (BD1+BD2) = target: T1, BRD4 (BD1+BD2) (Homo sapiens, UniProt O60885); conditions: read-out: BRD4 Binding Potency
T1 construct: 1.8 μg/ml recombinant BRD4 (BD1+BD2 domains) protein
Protocol: A master mix was prepared with assay buffer, 1.8 μg/ml recombinant BRD4 (BD1+BD2 domains) protein, and 200-fold dilutions of Tb-labeled donor and dye-labeled acceptor. 40-fold dilutions of acetylated and non-acetylated ligands were prepared in 1×BRD TR-FRET assay buffer. Also, a serial 3-fold dilution of each compound was prepared ranging from 40 μM down until 2.0 nM. In a 384-well plate, 5 μl diluted ligand and 5 μl of compound dilution were added per well to duplicate wells and mixed by brief shaking. Then 10 μl of master mix was added per well, mixed by brief shaking, incubated at 25° C. for 2 hr and fluorescence was measured on an EnVision Plate Reader. The 665 nm/615 nm ratio was calculated from EnVision raw data. Data were normalized using whole-plate averages of “positive” and “negative” readings. A four-parameter “log[inhibitor] vs. response” curve was fitted using GraphPad Prism 7.0.

MV4-11 cells = experiment: MV4-11 Cell Cytotoxicity Assay; assay type: cell-based, human; conditions: CCK-8; for IC50 at 72 h: human, MV4-11 cells
From the text: % Inhibition=100−(D−B)/(S−B)*100%.
S: The absorbance of the maximum (cells with DMSO)
B: The absorbance of the minimum (medium with DMSO)

HSP90α = HSP90α (Homo sapiens, UniProt P07900); experiment: HSP90α Binding Fluorescent Polarization (FP) Assay; conditions: competition with FITC-geldanamycin; read-out: HSP90 Binding Potency
Protocol: HSP90α Binding Fluorescent Polarization (FP) Assay
A master mix was prepared with assay buffer, BSA and FITC-geldanamycin. In a 96-well plate, a serial 3-fold dilution of each compound was prepared ranging from 40 μM down until 2.0 nM. Also in a 96-well plate, recombinant HSP90α protein was diluted to 28 μg/ml. Then, in a 384-well plate, 10 μl of master mix and 5 μl of compound dilution were added per well to duplicate wells and mixed by brief shaking. Then 5 μl of diluted HSP90α protein was added per well, mixed by brief shaking, incubated at 25° C. for 30, 60 and 120 min and fluorescence was measured on an EnVision Plate Reader. Background-subtracted mP values were calculated from EnVision raw data and a four-parameter “log[inhibitor] vs. response” curve was fitted using GraphPad Prism 7.0.

Structure (SMILES)	IC50 (BRD4 (BD1+BD2)) [nM]	IC50 at 72 h (MV4-11 cells) [nM]	IC50 (HSP90α) [nM]	IC50 (MV4-11 cells; 72 hr) [nM]
Cc1sc2c(c1C)C(c1ccc(Cl)cc1)=N[C@@H](CC(=O)N1CCC(CN[C@@H](C)C(=O)N[C@H](C(=O)N3CCC[C@H]3C(=O)Nc3snnc3-c3ccccc3)C3CCCCC3)CC1)c1nnc(C)n1-2 [Compound 129, (S)-1-((S)-2-((S)-2-(((1-(2-((S)-4-(4-chlorophenyl)-2,3,9-trimethyl-6H-thieno[3,2-f][1,2,4]triazolo[4,3-a][1,4]diazepin-6-yl)acetyl)piperidin-4-yl)methyl)amino)propanamido)-2-cyclohexylacetyl)-N-(4-phenyl-1,2,3-thiadiazol-5-yl)pyrrolidine-2-carboxamide]	> 1000	> 1000	> 1000	–
Cc1sc2c(c1C)C(c1ccc(Cl)cc1)=N[C@@H](CC(=O)NCCOc1cccc(CN(C)Cc3ccc(-n4c(O)nnc4-c4cc(C(C)C)c(O)cc4O)cc3)c1)c1nnc(C)n1-2 [Compound 50, 2-((6S)-4-(4-chlorophenyl)-2,3,9-trimethyl-6H-thieno[3,2-f][1,2,4]triazolo[4,3-a][1,4]diazepin-6-yl)-N-(2-(3-(((4-(3-(2,4-dihydroxy-5-isopropylphenyl)-5-hydroxy-4H-1,2,4-triazol-4-yl)benzyl)(methyl)amino)methyl)phenoxy)ethyl)acetamide, trifluoroacetic acid, trifluoroacetic acid, trifluoroacetic acid, trifluoroacetic …]	> 1000	< 100	100 to 1000	–
CCNC(=O)c1noc(-c2cc(C(C)C)c(O)cc2O)c1-c1ccc(CN2CCN(CC3CCN(C(=O)C[C@@H]4N=C(c5ccc(Cl)cc5)c5c(sc(C)c5C)-n5c(C)nnc54)CC3)CC2)cc1 [Compound 16, 4-(4-((4-((1-(2-((6S)-4-(4-chlorophenyl)-2,3,9-trimethyl-6H-thieno[3,2-f][1,2,4]triazolo[4,3-a][1,4]diazepin-6-yl)acetyl)piperidin-4-yl)methyl)piperazin-1-yl)methyl)phenyl)-5-(2,4-dihydroxy-5-isopropylphenyl)-N-ethylisoxazole-3-carboxamide, trifluoroacetic acid]	100 to 1000	–	100 to 1000	–
Cc1sc2c(c1C)C(c1ccc(Cl)cc1)=N[C@@H](CC(=O)NCC(=O)NCC1CCN(C(=O)C3CCN(Cc4ccc(-n5c(O)nnc5-c5cc(C(C)C)c(O)cc5O)cc4)CC3)CC1)c1nnc(C)n1-2 [Compound 46, (S)-2-(4-(4-chlorophenyl)-2,3,9-trimethyl-6H-thieno[3,2-f][1,2,4]triazolo[4,3-a][1,4]diazepin-6-yl)-N-(2-(((1-(1-(4-(3-(2,4-dihydroxy-5-isopropylphenyl)-5-hydroxy-4H-1,2,4-triazol-4-yl)benzyl)piperidine-4-carbonyl)piperidin-4-yl)methyl)amino)-2-oxoethyl)acetamide, trifluoroacetic acid]	< 100	< 100	< 100	–
Cc1sc2c(c1C)C(c1ccc(Cl)cc1)=N[C@@H](CC(=O)N(C)[C@H](C)c1ccc(CN3CCN(Cc4ccc(-n5c(O)nnc5-c5cc(C(C)C)c(O)cc5O)cc4)CC3)cc1)c1nnc(C)n1-2 [Compound 92, 2-((S)-4-(4-chlorophenyl)-2,3,9-trimethyl-6H-thieno[3,2-f][1,2,4]triazolo[4,3-a][1,4]diazepin-6-yl)-N—((R)-1-(4-((4-(4-(3-(2,4-dihydroxy-5-isopropylphenyl)-5-hydroxy-4H-1,2,4-triazol-4-yl)benzyl)piperazin-1-yl)methyl)phenyl)ethyl)-N-methylacetamide, trifluoroacetic acid]	> 1000	100 to 1000	> 1000	–
COc1cccc(-c2cc(C(=O)Nc3ccc(-c4ccc(OC5CCN(CC[C@@H]6N=C(c7ccc(Cl)cc7)c7c(sc(C)c7C)-n7c(C)nnc76)CC5)cc4OCCN(C)C)cc3)ccc2OC)c1 [Compound 140]	> 1000	–	> 1000	> 1000
CCc1cc(-c2nnc(C(N)=O)n2-c2ccc(CN3CCN(CC4CCN(C(=O)C[C@@H]5N=C(c6ccc(Cl)cc6)c6c(sc(C)c6C)-n6c(C)nnc65)CC4)CC3)cc2)c(O)cc1O [Compound 121, (S)-4-(4-((4-((1-(2-(4-(4-chlorophenyl)-2,3,9-trimethyl-6H-thieno[3,2-f][1,2,4]triazolo[4,3-a][1,4]diazepin-6-yl)acetyl)piperidin-4-yl)methyl)piperazin-1-yl)methyl)phenyl)-5-(5-ethyl-2,4-dihydroxyphenyl)-4H-1,2,4-triazole-3-carboxamide hydrochloride]	> 1000	–	< 100	–
CCc1cc(-c2nnc(C(N)=O)n2-c2ccc(CN3CCN(CC4CCN(C(=O)C[C@@H]5N=C(c6ccc(Cl)cc6)c6c(sc(C)c6C)-n6c(C)nnc65)CC4)CC3)cc2)c(O)cc1O [Compound 120, (S)-4-(4-((4-((1-(2-(4-(4-chlorophenyl)-2,3,9-trimethyl-6H-thieno[3,2-f][1,2,4]triazolo[4,3-a][1,4]diazepin-6-yl)acetyl)piperidin-4-yl)methyl)piperazin-1-yl)methyl)phenyl)-5-(5-ethyl-2,4-dihydroxyphenyl)-4H-1,2,4-triazole-3-carboxamide hydrochloride]	< 100	–	100 to 1000	–
CCc1cc(-c2nnc(O)n2-c2ccc(CN3CCN(CC4CCN(C(=O)C[C@@H]5N=C(c6ccc(Cl)cc6)c6c(sc(C)c6C)-n6c(C)nnc65)CC4)CC3)cc2)c(O)cc1O [Compound 1, 2-((6S)-4-(4-chlorophenyl)-2,3,9-trimethyl-6H-thieno[3,2-f][1,2,4]triazolo[4,3-a][1,4]diazepin-6-yl)-1-(4-((4-(4-(3-(5-ethyl-2,4-dihydroxyphenyl)-5-hydroxy-4H-1,2,4-triazol-4-yl)benzyl)piperazin-1-yl)methyl)piperidin-1-yl)ethanone]	100 to 1000	–	100 to 1000	–
Cc1sc2c(c1C)C(c1ccc(Cl)cc1)=N[C@@H](CC(=O)NC(C)c1ccc(CN3CCC(Cc4ccc(-n5c(O)nnc5-c5cc(C(C)C)c(O)cc5O)cc4)CC3)cc1)c1nnc(C)n1-2 (stereo in doubt) [Compound 82, 2-((S)-4-(4-chlorophenyl)-2,3,9-trimethyl-6H-thieno[3,2-f][1,2,4]triazolo[4,3-a][1,4]diazepin-6-yl)-N—((R)-1-(4-((4-(4-(3-(2,4-dihydroxy-5-isopropylphenyl)-5-hydroxy-4H-1,2,4-triazol-4-yl)benzyl)piperidin-1-yl)methyl)phenyl)ethyl)acetamide hydrochloride]	< 100	< 100	–	–
Cc1sc2c(c1C)C(c1ccc(Cl)cc1)=N[C@@H](CC(=O)N1CCC(CN3CCN(Cc4ccc(-n5c(O)nnc5-c5cc(C(C)C)c(O)cc5O)cc4)CC3)CC1)c1nnc(C)n1-2 [Compound 40, 2-((6S)-4-(4-chlorophenyl)-2,3,9-trimethyl-6H-thieno[3,2-f][1,2,4]triazolo[4,3-a][1,4]diazepin-6-yl)-1-(4-((4-(4-(3-(2,4-dihydroxy-5-isopropylphenyl)-5-hydroxy-4H-1,2,4-triazol-4-yl)benzyl)piperazin-1-yl)methyl)piperidin-1-yl)ethanone, trifluoroacetic acid]	100 to 1000	–	< 100	–
